Measured values as given in patent US20240093168A1, “TRANS[…] IN CELLS OF ORGANISM INCLUDING HUMAN, T[…], AND TOOL FOR PURIFYING COMPLEX THEREOF” (KAWASAKI GAKUEN EDUCATIONAL FOUNDATION, priority 2021, published 2024).

Molecular target: T1, HMG-CoA (Homo sapiens, UniProt P04035)
T1 sequence (P04035 426-888 limits assumed): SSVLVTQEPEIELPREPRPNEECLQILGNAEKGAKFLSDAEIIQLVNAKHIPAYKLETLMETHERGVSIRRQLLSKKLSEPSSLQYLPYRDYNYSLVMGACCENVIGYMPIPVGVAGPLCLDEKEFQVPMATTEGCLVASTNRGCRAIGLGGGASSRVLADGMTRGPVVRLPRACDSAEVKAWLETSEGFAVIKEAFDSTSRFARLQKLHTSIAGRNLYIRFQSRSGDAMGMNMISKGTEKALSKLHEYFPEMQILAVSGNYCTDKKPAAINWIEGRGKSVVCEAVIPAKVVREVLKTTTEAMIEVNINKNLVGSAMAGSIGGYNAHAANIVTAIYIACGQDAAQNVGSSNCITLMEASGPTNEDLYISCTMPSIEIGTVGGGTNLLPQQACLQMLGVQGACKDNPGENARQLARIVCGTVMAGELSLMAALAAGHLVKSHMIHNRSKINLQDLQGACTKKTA
Conditions: FIG. 17; S565 hydrogen bond

| SMILES | binding sites when binding to HMG-CoA |
| --- | --- |
| CC(C)c1nc(N(C)S(C)(=O)=O)nc(-c2ccc(F)cc2)c1/C=C/[C@@H](O)C[C@@H](O)CC(=O)O [rosuvastatin] | many binding sites (S565) |
| CC(C)c1c(C(=O)Nc2ccccc2)c(-c2ccccc2)c(-c2ccc(F)cc2)n1CC[C@@H](O)C[C@@H](O)CC(=O)O [atorvastatin] | many binding sites (S565) |
